Tested on: Arabidopsis wild-type plants (Col-0) detached leaves
Experiment: Differential gene expression study (RNA sequencing) in senescent detached leaves
Procedure: Comparative gene expression analysis in Arabidopsis model was performed to gain information about the reprogramming of gene transcription when senescent leaves were treated with 6-(3-methoxybenzylamino)-9-β-D-arabinofuranosylpurine (3MeOBAPA).
For isolation of total RNA, Arabidopsis wild-type plants (Col-0) were used, which were either treated with 3MeOBAPA or left untreated. Wild-type plants were grown in soil for 30 days, and then leaves of similar size and chlorophyll content were cut and immediately used for the treatment. At least 20 detached leaves were submerged in 1×MS medium supplemented with 10 μM 3MeOBAPA. Control samples were mock treated with DMSO only. After incubation for 6 h or 48 h in the dark, detached leaves were frozen in liquid nitrogen and used for RNA isolation; 150 mg of liquid nitrogen-ground material was used per isolation. cDNA sequencing libraries were prepared with the Illumina TruSeq Stranded mRNA LT Sample Prep Kit (Illumina, San Diego, Calif.) according to standard Illumina's protocols and sequenced on HiSeq 2500 apparatus (50 bp single-end reads). […] To gain insight into the molecular mechanism of 3MeOBAPA action in Arabidopsis we decided to analyze the gene expression patterns via comparison of mock (DMSO)-treated plants with those obtained after i) short time treatment with 3MeOBAPA (6 h) and ii) long time treatment (48 h). This comparison leads to identification of group of genes with similar kinetic of expression and helps to understand possible mechanism of regulation. For data analysis, we performed ab initio method where sequencing reads were mapped to the reference genome.

Question: How did the “number of genes downregulated in both groups” value (6 h and 48 h overlap) turn out when COc1cccc(CNc2ncnc3c2ncn3[C@@H]2O[C@H](CO)[C@@H](O)[C@@H]2O)c1 [6-(3-methoxybenzylamino)-9-β-D-arabinofuranosylpurine] was run?
Answer: 724 genes

Question: What about the “number of genes upregulated in both groups” value (6 h and 48 h overlap) of the same compound?
Answer: 1102 genes

Question: What about the “logFC AT1G02790 Polygalacturonase 4 (PGA4)” value (48 h, 10 μM) of the same compound?
Answer: 8.59

Question: What about the “logFC AT1G05580 Cation/H(+) exchanger 23 (CHX23)” value (48 h, 10 μM) of the same compound?
Answer: 5.46

Question: What about the “logFC AT1G10585 Basic helix-loop-helix (bHLH) DNA-binding superfamily protein” value (48 h, 10 μM) of the same compound?
Answer: 4.85

Question: What about the “logFC AT1G15540 2-oxoglutarate and Fe(II)-dependent oxygenase superfamily protein” value (48 h, 10 μM) of the same compound?
Answer: 5.63

Question: And the “logFC AT1G19670 Chlorophyllase-1 (CLH1)” value (48 h, 10 μM)?
Answer: 6.42

Question: What about the “logFC AT1G55560 SKU5 similar 14 (SKS14)” value (48 h, 10 μM) of the same compound?
Answer: 8.75

Question: And the “logFC AT1G59860 17.6 kDa class I heat shock protein 1 (HSP17.6A)” value (48 h, 10 μM)?
Answer: 5.47

Question: What about the “logFC AT1G59950 NAD(P)-linked oxidoreductase superfamily protein” value (48 h, 10 μM) of the same compound?
Answer: 5.72

Question: And the “logFC AT1G75830 Defensin-like protein 1.1 (PDF1.1)” value (48 h, 10 μM)?
Answer: 7.85

Question: What about the “logFC AT1G76640 Calcium-binding EF-hand family protein (CML39)” value (48 h, 10 μM) of the same compound?
Answer: 7.06

Question: What about the “logFC AT2G02010 Glutamate decarboxylase 4 (GAD4)” value (48 h, 10 μM) of the same compound?
Answer: 5.09

Question: What about the “logFC AT2G04460 Transposable element gene” value (48 h, 10 μM) of the same compound?
Answer: 5.43

Question: What about the “logFC AT2G18150 Peroxidase 15 (PER15)” value (48 h, 10 μM) of the same compound?
Answer: 7.22

Question: What about the “logFC AT2G21900 WRKY transcription factor 59 (WRKY59)” value (48 h, 10 μM) of the same compound?
Answer: 5.81

Question: What about the “logFC AT2G26010 Defensin-like protein 1.3 (PDF1.3)” value (48 h, 10 μM) of the same compound?
Answer: 8.23

Question: What about the “logFC AT2G26020 Defensin-like protein 1.2B (PDF1.2B)” value (48 h, 10 μM) of the same compound?
Answer: 6.04

Question: And the “logFC AT2G26695 Ran BP2/NZF zinc finger-like superfamily protein” value (48 h, 10 μM)?
Answer: 5.90

Question: And the “logFC AT2G28210 Alpha carbonic anhydrase 2 (ATACA2)” value (48 h, 10 μM)?
Answer: 5.86

Question: And the “logFC AT2G37430 Zinc finger protein ZAT11” value (48 h, 10 μM)?
Answer: 4.96

Question: What about the “logFC AT2G39030 L-ornithine N5-acetyltransferase (NATA1)” value (48 h, 10 μM) of the same compound?
Answer: 5.48

Question: And the “logFC AT2G47040 Pectin methylesterase Vanguard1 (VGD1)” value (48 h, 10 μM)?
Answer: 5.89

Question: What about the “logFC AT2G47050 Plant invertase/pectin methylesterase inhibitor superfamily protein” value (48 h, 10 μM) of the same compound?
Answer: 5.82

Question: What about the “logFC AT3G05610 Pectinesterase/pectinesterase inhibitor 21 (PME21)” value (48 h, 10 μM) of the same compound?
Answer: 5.58

Question: And the “logFC AT3G07820 Pectin lyase-like superfamily protein” value (48 h, 10 μM)?
Answer: 6.45

Question: And the “logFC AT3G09340 Transmembrane amino acid transporter family protein” value (48 h, 10 μM)?
Answer: 8.54

Question: What about the “logFC AT3G11340 UDP-Glycosyltransferase superfamily protein” value (48 h, 10 μM) of the same compound?
Answer: 6.60

Question: What about the “logFC AT3G13400 SKU5 similar 13 (SKS13)” value (48 h, 10 μM) of the same compound?
Answer: 5.57

Question: What about the “logFC AT3G28153 Transposable element gene” value (48 h, 10 μM) of the same compound?
Answer: 5.70

Question: And the “logFC AT3G28155 ARM repeat superfamily protein” value (48 h, 10 μM)?
Answer: 6.06

Question: What about the “logFC AT3G44830 Putative phospholipid: diacylglycerol acyltransferase 2 (PDAT2)” value (48 h, 10 μM) of the same compound?
Answer: 4.91

Question: What about the “logFC AT3G62710 Glycosyl hydrolase family protein” value (48 h, 10 μM) of the same compound?
Answer: 5.26

Question: And the “logFC AT4G01390 TRAF-like family protein” value (48 h, 10 μM)?
Answer: 6.24

Question: And the “logFC AT4G21830 Peptide methionine sulfoxide reductase B7 (MSRB7)” value (48 h, 10 μM)?
Answer: 5.95

Question: What about the “logFC AT4G22030 F-box domain, cyclin-like, F-box domain, Skp2-like protein” value (48 h, 10 μM) of the same compound?
Answer: 5.02

Question: And the “logFC AT4G22620 SAUR-like auxin-responsive family protein” value (48 h, 10 μM)?
Answer: 5.05

Question: And the “logFC AT4G24350 Phosphorylase superfamily protein” value (48 h, 10 μM)?
Answer: 6.45

Question: And the “logFC AT4G26010 Peroxidase 44 (PER44)” value (48 h, 10 μM)?
Answer: 7.92

Question: What about the “logFC AT4G31950 Cytochrome P450 82C3 (CYP82C3)” value (48 h, 10 μM) of the same compound?
Answer: 5.29

Question: And the “logFC AT4G35010 Beta-galactosidase 11 (BGAL11)” value (48 h, 10 μM)?
Answer: 5.33

Question: And the “logFC AT4G37780 Myb domain protein 87 (MYB87)” value (48 h, 10 μM)?
Answer: 6.88

Question: What about the “logFC AT4G39320 Microtubule-associated protein-related” value (48 h, 10 μM) of the same compound?
Answer: 5.09

Question: What about the “logFC AT5G03610 GDSL esterase/lipase” value (48 h, 10 μM) of the same compound?
Answer: 4.61

Question: What about the “logFC AT5G12960 Putative glycosyl hydrolase” value (48 h, 10 μM) of the same compound?
Answer: 5.26

Question: What about the “logFC AT5G44420 Defensin-like protein 1.2A (PDF1.2A)” value (48 h, 10 μM) of the same compound?
Answer: 8.15

Question: What about the “logFC AT5G44430 Defensin-like protein 1.2C (PDF1.2C)” value (48 h, 10 μM) of the same compound?
Answer: 8.87

Question: What about the “logFC AT5G45880 Pollen Ole e 1 allergen and extensin family protein” value (48 h, 10 μM) of the same compound?
Answer: 5.52

Question: And the “logFC AT5G52670 Copper transport family protein” value (48 h, 10 μM)?
Answer: 6.03

Question: And the “logFC AT5G61160 Agmatine coumaroyltransferase (ACT)” value (48 h, 10 μM)?
Answer: 5.05

Question: What about the “logFC AT5G62720 Integral membrane HPP family protein” value (48 h, 10 μM) of the same compound?
Answer: 5.31

Question: And the “logFC AT5G63270 RPM1-interacting protein 4 (RIN4) family protein” value (48 h, 10 μM)?
Answer: 7.11

Question: What about the “number of downregulated genes (P≤0.05)” value (48 h, 10 μM, vs mock) of the same compound?
Answer: 7095 genes

Question: What about the “number of upregulated genes (P≤0.05)” value (48 h, 10 μM, vs mock) of the same compound?
Answer: 7509 genes

From patent publication US10100077B2, “6-aryl-9-glycosylpurines and use thereof” (UNIVERZITA PALACKEHO V OLOMOUCI, priority 2014, dated 2018)
